In ChEMBL document CHEMBL1687752, “Impact of antifungal prophylaxis on colonization and azole susceptibility of Candida species” (2009):
In brackets after ≈: the same amount, converted by molar mass.

Assays:
Type in all cases: functional
Pichia kudriavzevii [1] = test: Antifungal activity against Candida krusei isolated from neutropenic subjects with AML or MDS prior to initiation of fluconazole therapy assessed as maximum MIC by broth microdilution method
Candida albicans [2] = test: Antifungal activity against Candida albicans isolated from HSCT recipients with acute or chronic GVHD receiving posaconazole by broth microdilution method
Nakaseomyces glabratus [3] = test: Antifungal activity against 7 days cultured Candida glabrata isolated from neutropenic subject with AML or MDS stool receiving antifungal therapy for 37 days after 9 days of prophylaxis by broth microdilution method
Nakaseomyces glabratus [4] = test: Antifungal activity against Candida glabrata isolated from HSCT recipients with acute or chronic GVHD prior to initiation of fluconazole therapy by broth microdilution method
Pichia kudriavzevii [5] = test: Antifungal activity against Candida krusei isolated from neutropenic subjects with AML or MDS receiving fluconazole assessed as maximum MIC by broth microdilution method
Nakaseomyces glabratus [6] = test: Antifungal activity against Candida glabrata isolated from HSCT recipient 270 with acute or chronic GVHD mouth after 108 days prophylaxis by broth microdilution method
Candida albicans [7] = test: Antifungal activity against Candida albicans isolated from HSCT recipients with acute or chronic GVHD prior to initiation of fluconazole therapy assessed as maximum MIC by broth microdilution method
Nakaseomyces glabratus [8] = test: Antifungal activity against Candida glabrata isolated from neutropenic subject 1318 with AML or MDS stool receiving antifungal drug after 36 days prophylaxis by broth microdilution method
Nakaseomyces glabratus [9] = test: Antifungal activity against 31 days cultured Candida glabrata isolated from HSCT recipient with acute or chronic GVHD mouth receiving antifungal therapy for 31 days after 28 days of prophylaxis by broth microdilution method
Candida albicans [10] = test: Antifungal activity against Candida albicans isolated from HSCT recipient 031 with acute or chronic GVHD mouth receiving antifungal drug after 109 days prophylaxis by broth microdilution method
Nakaseomyces glabratus [11] = test: Antifungal activity against 59 days cultured Candida glabrata isolated from HSCT recipient with acute or chronic GVHD mouth receiving antifungal therapy for 75 days after 33 days of prophylaxis by broth microdilution method
Candida tropicalis = test: Antifungal activity against 2 days cultured Candida tropicalis isolated from neutropenic subject with AML or MDS pharynx receiving antifungal therapy for 45 days after 24 days of prophylaxis by broth microdilution method
Candida albicans [12] = test: Antifungal activity against Candida albicans isolated from neutropenic subjects with AML or MDS prior to initiation of fluconazole therapy by broth microdilution method
Nakaseomyces glabratus [13] = test: Antifungal activity against Candida glabrata isolated from HSCT recipient 474 with acute or chronic GVHD mouth after 124 days prophylaxis by broth microdilution method
Nakaseomyces glabratus [14] = test: Antifungal activity against 36 days cultured Candida glabrata isolated from neutropenic subject with AML or MDS pharynx after 48 days of prophylaxis by broth microdilution method
Nakaseomyces glabratus [15] = test: Antifungal activity against Candida glabrata isolated from HSCT recipient 474 with acute or chronic GVHD mouth receiving antifungal drug after 124 days prophylaxis by broth microdilution method
Pichia kudriavzevii [16] = test: Antifungal activity against Candida krusei isolated from HSCT recipients with acute or chronic GVHD receiving fluconazole assessed as maximum MIC by broth microdilution method
Candida albicans [17] = test: Antifungal activity against Candida albicans isolated from neutropenic subjects with AML or MDS prior to initiation of posaconazole therapy assessed as maximum MIC by broth microdilution method
Pichia kudriavzevii [18] = test: Antifungal activity against 8 days cultured Candida krusei isolated from neutropenic subject with AML or MDS stool after 12 days of prophylaxis by broth microdilution method
Candida albicans [19] = test: Antifungal activity against Candida albicans isolated from HSCT recipient 262 with acute or chronic GVHD mouth after 115 days prophylaxis by broth microdilution method
Saccharomyces cerevisiae = test: Antifungal activity against Saccharomyces cerevisiae isolated from HSCT recipient 513 with acute or chronic GVHD mouth receiving antifungal drug after 112 days prophylaxis by broth microdilution method
Candida albicans [20] = test: Antifungal activity against Candida albicans isolated from HSCT recipient 262 with acute or chronic GVHD mouth receiving antifungal drug after 115 days prophylaxis by broth microdilution method
Nakaseomyces glabratus [21] = test: Antifungal activity against Candida glabrata isolated from neutropenic subjects with AML or MDS prior to initiation of fluconazole therapy assessed as maximum MIC by broth microdilution method
Nakaseomyces glabratus [22] = test: Antifungal activity against 62 days cultured Candida glabrata isolated from HSCT recipient with acute or chronic GVHD mouth receiving antifungal therapy for 143 days after 116 days of prophylaxis by broth microdilution method
Nakaseomyces glabratus [23] = test: Antifungal activity against 14 days cultured Candida glabrata isolated from HSCT recipient with acute or chronic GVHD mouth after 17 days of prophylaxis by broth microdilution method
Nakaseomyces glabratus [24] = test: Antifungal activity against 15 days cultured Candida glabrata isolated from HSCT recipient with acute or chronic GVHD mouth receiving antifungal therapy for 168 days after 113 days of prophylaxis by broth microdilution method
Nakaseomyces glabratus [25] = test: Antifungal activity against 10 days cultured Candida glabrata isolated from neutropenic subject with AML or MDS stool receiving antifungal therapy for 37 days after 9 days of prophylaxis by broth microdilution method
Nakaseomyces glabratus [26] = test: Antifungal activity against Candida glabrata isolated from neutropenic subject 1187 with AML or MDS stool receiving antifungal drug after 22 days prophylaxis by broth microdilution method; details: 528 h
Nakaseomyces glabratus [27] = test: Antifungal activity against Candida glabrata isolated from HSCT recipients with acute or chronic GVHD prior to initiation of posaconazole therapy assessed as maximum MIC by broth microdilution method
Nakaseomyces glabratus [28] = test: Antifungal activity against Candida glabrata isolated from HSCT recipient 975 with acute or chronic GVHD mouth after 112 days prophylaxis by broth microdilution method
Nakaseomyces glabratus [29] = test: Antifungal activity against Candida glabrata isolated from HSCT recipient 807 with acute or chronic GVHD mouth receiving antifungal drug after 114 days prophylaxis by broth microdilution method
Nakaseomyces glabratus [30] = test: Antifungal activity against Candida glabrata isolated from neutropenic subject 1491 with AML or MDS pharynx receiving antifungal drug after 23 days prophylaxis by broth microdilution method; details: 552 h
Nakaseomyces glabratus [31] = test: Antifungal activity against Candida glabrata isolated from HSCT recipient 497 with acute or chronic GVHD mouth receiving antifungal drug after 114 days prophylaxis by broth microdilution method
Candida albicans [32] = test: Antifungal activity against 1 day cultured Candida albicans isolated from HSCT recipient with acute or chronic GVHD mouth after 2 days of prophylaxis by broth microdilution method
Nakaseomyces glabratus [33] = test: Antifungal activity against 111 days cultured Candida glabrata isolated from HSCT recipient with acute or chronic GVHD mouth receiving antifungal therapy for 143 days after 116 days of prophylaxis by broth microdilution method
Nakaseomyces glabratus [34] = test: Antifungal activity against Candida glabrata isolated from neutropenic subjects with AML or MDS receiving fluconazole by broth microdilution method
Nakaseomyces glabratus [35] = test: Antifungal activity against Candida glabrata isolated from HSCT recipient 807 with acute or chronic GVHD mouth after 114 days prophylaxis by broth microdilution method
Nakaseomyces glabratus [36] = test: Antifungal activity against 88 days cultured Candida glabrata isolated from HSCT recipient with acute or chronic GVHD mouth receiving antifungal therapy for 75 days after 33 days of prophylaxis by broth microdilution method
Nakaseomyces glabratus [37] = test: Antifungal activity against Candida glabrata isolated from neutropenic subjects with AML or MDS prior to initiation of posaconazole therapy by broth microdilution method

CC[C@@H]([C@H](C)O)n1ncn(-c2ccc(N3CCN(c4ccc(OC[C@@H]5CO[C@@](Cn6cncn6)(c6ccc(F)cc6F)C5)cc4)CC3)cc2)c1=O [POSACONAZOLE]
MIC (Pichia kudriavzevii [1]): 0.25 µg/mL | MIC50 (Candida albicans [2]): 0.03 µg/mL (≈ 0.0428 µM) | MIC90 (Candida albicans [2]): 0.12 µg/mL (≈ 0.171 µM) | MIC (Nakaseomyces glabratus [3]): 1 µg/mL (≈ 1.43 µM) | MIC50 (Nakaseomyces glabratus [4]): 1 µg/mL (≈ 1.43 µM) | MIC90 (Nakaseomyces glabratus [4]): 8 µg/mL (≈ 11.4 µM) | MIC (Pichia kudriavzevii [5]): 0.25 µg/mL | MIC (Nakaseomyces glabratus [6]): 0.06 µg/mL (≈ 0.0856 µM) | MIC (Candida albicans [7]): 0.06 µg/mL | MIC (Nakaseomyces glabratus [8]): 8 µg/mL (≈ 11.4 µM) | MIC (Nakaseomyces glabratus [9]): < 0.5 µg/mL | MIC (Candida albicans [10]): < 0.015 µg/mL | MIC (Nakaseomyces glabratus [11]): 1 µg/mL (≈ 1.43 µM) | MIC (Candida tropicalis): < 0.015 µg/mL | MIC50 (Candida albicans [12]): 0.015 µg/mL (≈ 0.0214 µM) | MIC90 (Candida albicans [12]): 0.015 µg/mL (≈ 0.0214 µM) | MIC (Nakaseomyces glabratus [13]): 0.25 µg/mL (≈ 0.357 µM) | MIC (Nakaseomyces glabratus [14]): 1 µg/mL (≈ 1.43 µM) | MIC (Nakaseomyces glabratus [15]): 4 µg/mL (≈ 5.71 µM) | MIC (Pichia kudriavzevii [16]): 1 µg/mL | MIC (Candida albicans [17]): 0.06 µg/mL | MIC (Pichia kudriavzevii [18]): 0.125 µg/mL (≈ 0.178 µM) | MIC (Candida albicans [19]): < 0.015 µg/mL | MIC (Saccharomyces cerevisiae): 4 µg/mL (≈ 5.71 µM) | MIC (Candida albicans [20]): < 0.015 µg/mL | MIC (Nakaseomyces glabratus [21]): 8 µg/mL | MIC (Nakaseomyces glabratus [22]): 4 µg/mL (≈ 5.71 µM) | MIC (Nakaseomyces glabratus [23]): 8 µg/mL (≈ 11.4 µM) | MIC (Nakaseomyces glabratus [24]): 2 µg/mL (≈ 2.85 µM) | MIC (Nakaseomyces glabratus [25]): 1 µg/mL (≈ 1.43 µM) | MIC (Nakaseomyces glabratus [26]): 4 µg/mL (≈ 5.71 µM) | MIC (Nakaseomyces glabratus [27]): 8 µg/mL | MIC (Nakaseomyces glabratus [28]): 0.25 µg/mL (≈ 0.357 µM) | MIC (Nakaseomyces glabratus [29]): > 8 µg/mL | MIC (Nakaseomyces glabratus [30]): 8 µg/mL (≈ 11.4 µM) | MIC (Nakaseomyces glabratus [31]): 2 µg/mL (≈ 2.85 µM) | MIC (Candida albicans [32]): < 0.03 µg/mL | MIC (Nakaseomyces glabratus [33]): 4 µg/mL (≈ 5.71 µM) | MIC50 (Nakaseomyces glabratus [34]): 0.5 µg/mL (≈ 0.713 µM) | MIC90 (Nakaseomyces glabratus [34]): 1 µg/mL (≈ 1.43 µM) | MIC (Nakaseomyces glabratus [35]): 0.25 µg/mL (≈ 0.357 µM) | MIC (Nakaseomyces glabratus [36]): 2 µg/mL (≈ 2.85 µM) | MIC50 (Nakaseomyces glabratus [37]): 0.25 µg/mL (≈ 0.357 µM) | MIC90 (Nakaseomyces glabratus [37]): 2 µg/mL (≈ 2.85 µM)
